{
  "source": "paper PMC3823425",
  "about": "(Journal of Cellular and Molecular Medicine, 2012)",
  "key": {"[1]": {"assay": "Toxicity observed in panel of human xenograft models", "assay_type": "in vivo, nude mice", "conditions": "p.o., 5 days per week, 5–20 mg/kg"}, "c-Src": {"molecular_target": "c-Src (Homo sapiens, UniProt P12931)", "sequence (P12931 270-523 limits assumed, species assumed)": "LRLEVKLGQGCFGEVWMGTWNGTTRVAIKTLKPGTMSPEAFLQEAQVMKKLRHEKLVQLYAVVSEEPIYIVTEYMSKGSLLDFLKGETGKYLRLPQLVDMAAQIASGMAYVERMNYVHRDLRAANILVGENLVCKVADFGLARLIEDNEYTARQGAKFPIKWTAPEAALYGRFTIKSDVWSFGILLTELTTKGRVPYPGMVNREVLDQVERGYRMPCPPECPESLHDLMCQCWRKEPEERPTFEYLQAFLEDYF", "assay": "biochemical"}, "FGFR1 [2]": {"molecular_target": "T1, FGFR1 (Homo sapiens, UniProt P11362)", "conditions": "molecular assay, versus sorafenib"}, "FGFR1 [3]": {"molecular_target": "T1, FGFR1", "assay": "biochemical"}, "PDGFRα [4]": {"molecular_target": "T2, PDGFRα (Homo sapiens, UniProt P16234)", "T2 sequence (P16234 24-1089, species assumed)": "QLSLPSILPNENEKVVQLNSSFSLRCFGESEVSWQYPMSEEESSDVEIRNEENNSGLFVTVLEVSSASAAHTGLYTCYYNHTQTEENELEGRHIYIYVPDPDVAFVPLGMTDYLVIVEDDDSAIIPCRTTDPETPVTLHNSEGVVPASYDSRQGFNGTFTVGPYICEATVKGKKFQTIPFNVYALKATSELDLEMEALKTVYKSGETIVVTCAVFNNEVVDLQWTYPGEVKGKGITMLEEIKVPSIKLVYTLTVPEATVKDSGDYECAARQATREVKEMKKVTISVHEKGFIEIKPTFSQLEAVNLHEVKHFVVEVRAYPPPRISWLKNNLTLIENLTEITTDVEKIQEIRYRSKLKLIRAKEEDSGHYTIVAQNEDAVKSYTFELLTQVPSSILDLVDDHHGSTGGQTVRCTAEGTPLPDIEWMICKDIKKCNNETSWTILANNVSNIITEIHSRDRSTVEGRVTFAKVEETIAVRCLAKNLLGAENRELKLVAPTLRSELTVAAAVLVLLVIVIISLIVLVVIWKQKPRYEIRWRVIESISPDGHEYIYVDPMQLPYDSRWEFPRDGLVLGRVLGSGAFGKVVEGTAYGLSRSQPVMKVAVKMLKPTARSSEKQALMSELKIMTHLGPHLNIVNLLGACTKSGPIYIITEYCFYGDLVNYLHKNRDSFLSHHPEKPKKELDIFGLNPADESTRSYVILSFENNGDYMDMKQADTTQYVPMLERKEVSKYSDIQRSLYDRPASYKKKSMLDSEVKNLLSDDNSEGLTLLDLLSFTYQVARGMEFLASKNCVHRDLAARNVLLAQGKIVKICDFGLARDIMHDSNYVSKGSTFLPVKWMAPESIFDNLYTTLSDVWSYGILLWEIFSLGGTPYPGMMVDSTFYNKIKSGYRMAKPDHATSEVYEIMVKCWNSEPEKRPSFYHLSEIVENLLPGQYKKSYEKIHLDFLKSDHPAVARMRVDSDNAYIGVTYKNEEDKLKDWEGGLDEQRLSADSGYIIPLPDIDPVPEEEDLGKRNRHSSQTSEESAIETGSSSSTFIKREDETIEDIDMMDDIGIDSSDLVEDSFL", "assay": "ELISA kinase assay PDGFRα", "assay_type": "biochemical"}, "VEGFR2 [5]": {"molecular_target": "T3, VEGFR2 (Homo sapiens, UniProt P35968)", "assay": "Cellular VEGFR2 autophosphorylation reversible assay", "assay_type": "cell-based", "conditions": "HUVEC, 1 μmol/L for 4 hrs"}, "[6]": {"tested_on": "renal carcinoma xenograft No.213847", "assay": "Patient-derived renal carcinoma xenograft No.213847", "assay_type": "in vivo, nude mice"}, "VEGFR2 [7]": {"molecular_target": "T3, VEGFR2"}, "PDGFRβ [8]": {"molecular_target": "T4, PDGFRβ (Homo sapiens, UniProt P09619)", "T4 sequence (P09619 33-1106, species assumed)": "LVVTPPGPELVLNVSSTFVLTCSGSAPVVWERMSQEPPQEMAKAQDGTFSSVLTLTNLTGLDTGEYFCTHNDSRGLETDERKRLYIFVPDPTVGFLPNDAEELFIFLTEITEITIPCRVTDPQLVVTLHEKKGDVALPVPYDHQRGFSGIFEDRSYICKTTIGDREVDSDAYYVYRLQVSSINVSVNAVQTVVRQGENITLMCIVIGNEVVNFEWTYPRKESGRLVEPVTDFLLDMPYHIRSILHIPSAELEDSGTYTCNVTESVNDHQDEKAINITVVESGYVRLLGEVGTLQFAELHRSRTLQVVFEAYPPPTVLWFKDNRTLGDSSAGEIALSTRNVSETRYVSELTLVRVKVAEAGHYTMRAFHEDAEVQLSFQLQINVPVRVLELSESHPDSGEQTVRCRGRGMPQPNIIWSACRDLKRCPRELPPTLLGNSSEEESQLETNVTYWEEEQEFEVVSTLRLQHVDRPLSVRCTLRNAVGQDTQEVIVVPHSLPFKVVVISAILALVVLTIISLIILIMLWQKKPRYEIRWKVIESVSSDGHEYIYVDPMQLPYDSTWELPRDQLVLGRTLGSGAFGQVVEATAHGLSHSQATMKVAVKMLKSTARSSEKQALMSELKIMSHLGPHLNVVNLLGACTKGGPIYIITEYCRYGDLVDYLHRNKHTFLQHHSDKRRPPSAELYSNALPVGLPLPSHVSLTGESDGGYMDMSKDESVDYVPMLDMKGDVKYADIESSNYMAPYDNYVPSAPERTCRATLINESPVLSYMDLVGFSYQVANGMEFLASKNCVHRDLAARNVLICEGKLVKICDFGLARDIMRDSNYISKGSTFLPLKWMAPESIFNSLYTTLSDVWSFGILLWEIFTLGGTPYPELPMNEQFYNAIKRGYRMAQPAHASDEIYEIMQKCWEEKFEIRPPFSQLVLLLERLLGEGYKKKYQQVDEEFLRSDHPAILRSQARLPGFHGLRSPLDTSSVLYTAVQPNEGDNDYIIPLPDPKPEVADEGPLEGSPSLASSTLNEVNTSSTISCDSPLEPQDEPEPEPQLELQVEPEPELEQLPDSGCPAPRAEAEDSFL", "conditions": "read-out: IC50 PDGFRβ phosphorylation in vitro assay; ref 17 Bello et al.; cited from earlier work"}, "[9]": {"tested_on": "renal carcinoma xenograft (No.213847)", "assay": "CD31 immunohistochemistry of tumour microvessels", "assay_type": "in vivo, nude mice", "conditions": "five consecutive days"}, "[10]": {"assay": "Tissue distribution in tumour-bearing nude mice", "assay_type": "in vivo", "conditions": "for concentration at 21 day: nude, mouse, oral, 10 mg/kg"}, "[11]": {"tested_on": "chicken chorioallantoic membrane", "assay": "Chicken chorioallantoic membrane assay", "assay_type": "in vivo", "conditions": "48 hrs"}, "VEGFR2 [12]": {"molecular_target": "T3, VEGFR2", "assay": "biochemical"}, "HUVEC cells [13]": {"tested_on": "HUVEC cells", "assay": "VEGF-driven HUVEC proliferation", "assay_type": "cell-based", "conditions": "Homo sapiens, read-out: IC50 VEGF-driven HUVECs proliferation"}, "PDGFRα [14]": {"molecular_target": "T2, PDGFRα", "conditions": "read-out: IC50 PDGFRα phosphorylation in vitro assay; ref 17 Bello et al.; cited from earlier work"}, "[15]": {"tested_on": "renal carcinoma xenograft No.20090223", "assay": "Patient-derived renal carcinoma xenograft No.20090223", "assay_type": "in vivo, nude mice"}, "ERK1/2 and AKT": {"tested_on": "ERK1/2 and AKT", "assay": "VEGF-induced activation of ERK1/2 and AKT", "assay_type": "cell-based", "conditions": "VEGF165 50 ng/ml"}, "VEGFR1": {"molecular_target": "VEGFR1 (Homo sapiens, UniProt P17948)", "assay": "ELISA kinase assay VEGFR1", "assay_type": "biochemical"}, "[16]": {"tested_on": "786-O renal carcinoma xenograft", "assay": "Tumour xenograft 786-O", "assay_type": "in vivo, nude mice", "conditions": "786-O model, dosages below 20 mg/kg"}, "[17]": {"tested_on": "renal carcinoma xenograft (No.213847)", "assay": "PDGFRβ immunohistochemistry of tumour pericytes", "assay_type": "in vivo, nude mice", "conditions": "5 days"}, "HUVEC cells [18]": {"tested_on": "HUVEC cells", "assay": "b-FGF-driven HUVEC proliferation", "assay_type": "cell-based", "conditions": "Homo sapiens, read-out: IC50 bFGF-driven HUVECs proliferation"}, "[19]": {"tested_on": "Bxpc-3 pancreatic cancer xenograft", "assay": "Tumour xenograft Bxpc-3", "assay_type": "in vivo, nude mice", "conditions": "Bxpc-3 model, dosages below 20 mg/kg"}, "RET": {"molecular_target": "RET (Homo sapiens, UniProt P07949)", "assay": "ELISA kinase assay RET", "assay_type": "biochemical"}, "VEGFR2 [20]": {"molecular_target": "T3, VEGFR2", "assay_type": "biochemical", "conditions": "pre-incubation 30 min., 100-fold dilution"}, "EPH-B2": {"molecular_target": "EPH-B2 (Homo sapiens, UniProt P29323)", "sequence (P29323 621-884 limits assumed, species assumed)": "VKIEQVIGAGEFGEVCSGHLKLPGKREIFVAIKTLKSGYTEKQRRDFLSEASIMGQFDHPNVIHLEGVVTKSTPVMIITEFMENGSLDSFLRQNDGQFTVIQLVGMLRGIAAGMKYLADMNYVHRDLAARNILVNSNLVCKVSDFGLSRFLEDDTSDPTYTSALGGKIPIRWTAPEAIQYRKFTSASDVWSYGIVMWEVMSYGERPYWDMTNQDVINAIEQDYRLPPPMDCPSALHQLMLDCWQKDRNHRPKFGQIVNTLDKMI", "assay": "ELISA kinase assay EPH-B2", "assay_type": "biochemical"}, "[21]": {"assay": "Plasma pharmacokinetics after p.o. administration", "assay_type": "in vivo, rats"}, "FGFR1 [22]": {"molecular_target": "T1, FGFR1", "assay": "bFGF-induced FGFR1 autophosphorylation in HUVEC", "assay_type": "cell-based", "conditions": "b-FGF 25 ng/ml"}, "PDGFRβ [23]": {"molecular_target": "PDGFRβ (Mus musculus, UniProt P05622)", "sequence (P05622 32-1098)": "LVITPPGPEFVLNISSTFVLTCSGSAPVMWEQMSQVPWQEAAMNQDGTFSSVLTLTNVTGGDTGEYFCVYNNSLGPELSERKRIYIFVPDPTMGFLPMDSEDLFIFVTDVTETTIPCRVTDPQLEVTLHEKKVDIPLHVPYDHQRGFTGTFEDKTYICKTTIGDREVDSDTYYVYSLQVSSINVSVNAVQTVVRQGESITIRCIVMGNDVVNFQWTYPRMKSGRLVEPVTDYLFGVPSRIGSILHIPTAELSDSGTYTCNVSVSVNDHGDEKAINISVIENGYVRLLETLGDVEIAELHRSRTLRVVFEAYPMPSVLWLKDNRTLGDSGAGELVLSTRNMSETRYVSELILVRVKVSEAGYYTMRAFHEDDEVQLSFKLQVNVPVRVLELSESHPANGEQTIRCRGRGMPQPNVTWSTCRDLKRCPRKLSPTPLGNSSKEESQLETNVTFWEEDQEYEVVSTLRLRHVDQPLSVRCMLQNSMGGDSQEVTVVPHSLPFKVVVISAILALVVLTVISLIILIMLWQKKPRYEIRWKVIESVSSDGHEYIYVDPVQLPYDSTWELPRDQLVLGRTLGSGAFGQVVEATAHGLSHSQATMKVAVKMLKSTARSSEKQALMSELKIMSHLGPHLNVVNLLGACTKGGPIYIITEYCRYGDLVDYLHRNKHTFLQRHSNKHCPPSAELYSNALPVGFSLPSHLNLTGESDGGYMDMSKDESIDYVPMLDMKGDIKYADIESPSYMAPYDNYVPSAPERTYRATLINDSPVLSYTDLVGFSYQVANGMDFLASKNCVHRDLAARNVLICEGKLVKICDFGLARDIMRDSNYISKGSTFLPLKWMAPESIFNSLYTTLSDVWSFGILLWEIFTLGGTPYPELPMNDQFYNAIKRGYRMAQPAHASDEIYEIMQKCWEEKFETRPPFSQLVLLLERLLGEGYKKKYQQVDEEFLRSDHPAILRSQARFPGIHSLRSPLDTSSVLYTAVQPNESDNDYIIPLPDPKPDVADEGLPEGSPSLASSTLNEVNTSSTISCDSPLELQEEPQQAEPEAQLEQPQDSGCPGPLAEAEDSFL", "assay": "PDGFBB-induced PDGFRβ autophosphorylation in Swiss3T3", "assay_type": "cell-based, rat"}, "PDGFRβ [24]": {"molecular_target": "T4, PDGFRβ", "assay": "ELISA kinase assay PDGFRβ", "assay_type": "biochemical"}, "EPH-A2": {"molecular_target": "EPH-A2 (Homo sapiens, UniProt P29317)", "sequence (P29317 613-875 limits assumed, species assumed)": "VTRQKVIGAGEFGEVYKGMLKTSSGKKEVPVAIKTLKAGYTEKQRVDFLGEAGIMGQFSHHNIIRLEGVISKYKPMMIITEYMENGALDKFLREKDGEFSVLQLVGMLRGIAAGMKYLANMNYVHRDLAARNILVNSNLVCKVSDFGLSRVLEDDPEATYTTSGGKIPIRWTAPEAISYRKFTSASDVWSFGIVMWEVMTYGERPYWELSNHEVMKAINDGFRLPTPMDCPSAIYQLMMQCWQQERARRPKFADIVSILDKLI", "assay": "ELISA kinase assay EPH-A2", "assay_type": "biochemical", "conditions": "IC50 EPHA2, ELISA"}, "VEGFR2 [25]": {"molecular_target": "T3, VEGFR2", "assay_type": "biochemical", "conditions": "varying concentrations of ATP"}, "c-Kit": {"molecular_target": "c-Kit (Homo sapiens, UniProt P10721)", "sequence (P10721 589-937 limits assumed)": "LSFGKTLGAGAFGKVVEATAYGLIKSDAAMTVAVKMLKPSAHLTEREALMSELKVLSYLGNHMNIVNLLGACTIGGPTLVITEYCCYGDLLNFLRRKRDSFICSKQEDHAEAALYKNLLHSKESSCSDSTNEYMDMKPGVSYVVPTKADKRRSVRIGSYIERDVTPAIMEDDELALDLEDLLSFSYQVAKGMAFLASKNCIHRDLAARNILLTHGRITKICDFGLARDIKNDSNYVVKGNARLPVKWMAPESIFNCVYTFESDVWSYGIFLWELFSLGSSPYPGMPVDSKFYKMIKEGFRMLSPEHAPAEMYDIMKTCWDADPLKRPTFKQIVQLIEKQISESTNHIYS", "assay": "ELISA kinase assay c-Kit", "assay_type": "biochemical"}, "[26]": {"tested_on": "16 different tumour cell lines", "assay": "Tumour cell lines proliferation in vitro", "assay_type": "cell-based", "conditions": "read-out: average IC50 against 16 tumour cell lines proliferation"}, "[27]": {"conditions": "day 21 versus first administration"}},
  "note": "“Also recorded” adds a separate entry of the source. Read-outs that look alike come from different tables or passages of the source.",
  "data": [
    {"molecule": "CNC(=O)c1cccc2cc(Oc3ccnc4cc(OCC5(N)CC5)c(OC)cc34)ccc12", "note": "[AL3810, 6-[[7-[(1-aminocyclopropyl)methoxy]-6-methoxy-4-quinolyl]oxy]-N-methyl-naphthalene-1-carboxamide]", "values": [
      {"measurement": "toxicity in xenograft-bearing mice", "setting": "[1]", "result": "no obvious toxicity observed"},
      {"measurement": "IC50", "setting": "c-Src", "result": 4900, "unit": "nM"},
      {"measurement": "IC50 against FGFR lower than sorafenib", "setting": "FGFR1 [2]", "result": 25, "unit": "fold"},
      {"measurement": "IC50", "setting": "FGFR1 [3]", "result": 7, "unit": "nM"},
      {"measurement": "IC50", "setting": "PDGFRα [4]", "result": 13, "unit": "nM"},
      {"measurement": "VEGFR2 phosphorylation after inhibitor washout", "setting": "VEGFR2 [5]; 6 hrs after removal", "result": "recovered substantially"},
      {"measurement": "VEGFR2 phosphorylation after inhibitor washout", "setting": "VEGFR2 [5]; 24 hrs after washout", "result": "total restoration"},
      {"measurement": "T/C", "setting": "[6]; No.213847, 5 mg/kg p.o., 5 days per week", "result": 9.01, "unit": "%"},
      {"measurement": "tumour response", "setting": "[6]; No.213847, 10–20 mg/kg", "result": "tumour regression"},
      {"measurement": "Tyr996 phosphorylation of VEGFR2", "setting": "VEGFR2 [7]", "result": "inhibited"},
      {"measurement": "VEGFR2 autophosphorylation", "setting": "VEGFR2 [7]", "result": "almost completely blocked"},
      {"measurement": "IC50", "setting": "PDGFRβ [8]", "result": 525, "unit": "nM"},
      {"measurement": "reduction of vessel density (CD31)", "setting": "[9]; 5 mg/kg", "result": 45, "unit": "%"},
      {"measurement": "reduction of vessel density (CD31)", "setting": "[9]; 10 mg/kg", "result": 80, "unit": "%"},
      {"measurement": "reduction of vessel density (CD31)", "setting": "[9]; 20 mg/kg", "result": 90, "unit": "%"},
      {"measurement": "exposure in liver, improvement versus first administration", "setting": "[10]; [27]", "result": 1.6, "unit": "times"},
      {"measurement": "exposure in lung, improvement versus first administration", "setting": "[10]; [27]", "result": 1.4, "unit": "times"},
      {"measurement": "exposure in renal tissue, improvement versus first administration", "setting": "[10]; [27]", "result": 2.1, "unit": "times"},
      {"measurement": "exposure in tumours, improvement versus first administration", "setting": "[10]; [27]", "result": 2.9, "unit": "times"},
      {"measurement": "concentration at 21 day", "setting": "[10]; kidney", "result": 398, "unit": "ng/g"},
      {"measurement": "concentration at 21 day", "setting": "[10]; liver", "result": 276, "unit": "ng/g"},
      {"measurement": "concentration at 21 day", "setting": "[10]; lung", "result": 208, "unit": "ng/g"},
      {"measurement": "concentration at 21 day", "setting": "[10]; plasma", "result": 7.8, "unit": "ng/mL"},
      {"measurement": "concentration at 21 day", "setting": "[10]; tumour", "result": 403, "unit": "ng/g"},
      {"measurement": "inhibition rate of blood vessel numbers and branching", "setting": "[11]; 0.3 nmol/egg", "result": 45.4, "unit": "%"},
      {"measurement": "inhibition rate of blood vessel numbers and branching", "setting": "[11]; 1 nmol/egg", "result": 82.5, "unit": "%"},
      {"measurement": "IC50", "setting": "VEGFR2 [12]", "result": 4, "unit": "nM"},
      {"measurement": "IC50", "setting": "HUVEC cells [13]", "result": 42, "unit": "nM"},
      {"measurement": "IC50", "setting": "PDGFRα [14]", "result": 175, "unit": "nM"},
      {"measurement": "T/C", "setting": "[15]; No.20090223, 5 mg/kg p.o., 5 days per week", "result": 13.3, "unit": "%"},
      {"measurement": "tumour response", "setting": "[15]; No.20090223, 10–20 mg/kg", "result": "tumour regression"},
      {"measurement": "VEGF-induced activation of ERK1/2 and AKT", "setting": "ERK1/2 and AKT", "result": "dramatically inhibited"},
      {"measurement": "IC50", "setting": "VEGFR1", "result": 12, "unit": "nM"},
      {"measurement": "tumour response", "setting": "[16]", "result": "tumour regression"},
      {"measurement": "reduction of PDGFRβ positive cells", "setting": "[17]; 5 mg/kg", "result": 52, "unit": "%"},
      {"measurement": "reduction of PDGFRβ positive cells", "setting": "[17]; 10 mg/kg", "result": 73, "unit": "%"},
      {"measurement": "reduction of PDGFRβ positive cells", "setting": "[17]; 20 mg/kg", "result": 86, "unit": "%"},
      {"measurement": "IC50", "setting": "HUVEC cells [18]", "result": 140, "unit": "nM"},
      {"measurement": "tumour response", "setting": "[19]", "result": "tumour regression"},
      {"measurement": "IC50", "setting": "RET", "result": 200, "unit": "nM"},
      {"measurement": "reversibility of VEGFR2 inhibition", "setting": "VEGFR2 [20]", "result": "reversible inhibitor"},
      {"measurement": "IC50", "setting": "EPH-B2", "result": 902, "unit": "nM"},
      {"measurement": "bioavailability", "setting": "[21]; rat, in vivo, po", "result": 31, "unit": "%"},
      {"measurement": "Tmax", "setting": "[21]; rat, plasma, po, 10 mg", "result": 6, "unit": "h"},
      {"measurement": "concentration at 24 hrs", "setting": "[21]; rat, plasma, po, 10 mg", "result": "< 50", "unit": "ng/mL"},
      {"measurement": "maximal plasma concentration", "setting": "[21]; rats, 10 mg p.o.", "result": "~1000", "unit": "ng/mL"},
      {"measurement": "bFGF-induced FGFR1 autophosphorylation / activation", "setting": "FGFR1 [22]", "result": "blocked"},
      {"measurement": "PDGFBB-induced PDGFRβ autophosphorylation", "setting": "PDGFRβ [23]; 100 nmol/l, Swiss3T3, PDGF-BB 40 ng/ml", "result": "inhibited; also recorded: almost completely block"},
      {"measurement": "IC50", "setting": "PDGFRβ [24]", "result": 8, "unit": "nM"},
      {"measurement": "IC50", "setting": "EPH-A2", "result": 6660, "unit": "nM"},
      {"measurement": "mode of inhibition versus ATP", "setting": "VEGFR2 [25]", "result": "ATP competitive"},
      {"measurement": "IC50", "setting": "c-Kit", "result": 527, "unit": "nM"},
      {"measurement": "IC50", "setting": "[26]", "result": "~18700", "unit": "nM"}
    ]},
    {"molecule": "CNC(=O)c1cc(Oc2ccc(NC(=O)Nc3ccc(Cl)c(C(F)(F)F)c3)cc2)ccn1", "note": "[Sorafenib, reference compound]", "values": [
      {"measurement": "IC50", "setting": "HUVEC cells [13]", "result": 337, "unit": "nM"},
      {"measurement": "IC50", "setting": "HUVEC cells [18]", "result": 2260, "unit": "nM"},
      {"measurement": "bFGF-induced FGFR1 autophosphorylation / activation", "setting": "FGFR1 [22]", "result": "potent inhibitory effects"},
      {"measurement": "PDGFRβ activation", "setting": "PDGFRβ [23]; Swiss3T3, concentration not stated", "result": "potent inhibitory effects"}
    ]}
  ]
}
